{
  "source": "patent US11738065B2",
  "about": "“Polypeptides and analogues thereof for use in the treatment of diabetes and bone disorders” (UNIVERSITY OF ULSTER, priority 2015, dated 2023)",
  "key": {"[1]": {"biological_target": "T1, purified porcine DPP-4 (Sus scrofa, UniProt P22411)", "T1 construct": "purchased Sigma-Aldrich, Dorset, UK", "T1 sequence (P22411 whole entry)": "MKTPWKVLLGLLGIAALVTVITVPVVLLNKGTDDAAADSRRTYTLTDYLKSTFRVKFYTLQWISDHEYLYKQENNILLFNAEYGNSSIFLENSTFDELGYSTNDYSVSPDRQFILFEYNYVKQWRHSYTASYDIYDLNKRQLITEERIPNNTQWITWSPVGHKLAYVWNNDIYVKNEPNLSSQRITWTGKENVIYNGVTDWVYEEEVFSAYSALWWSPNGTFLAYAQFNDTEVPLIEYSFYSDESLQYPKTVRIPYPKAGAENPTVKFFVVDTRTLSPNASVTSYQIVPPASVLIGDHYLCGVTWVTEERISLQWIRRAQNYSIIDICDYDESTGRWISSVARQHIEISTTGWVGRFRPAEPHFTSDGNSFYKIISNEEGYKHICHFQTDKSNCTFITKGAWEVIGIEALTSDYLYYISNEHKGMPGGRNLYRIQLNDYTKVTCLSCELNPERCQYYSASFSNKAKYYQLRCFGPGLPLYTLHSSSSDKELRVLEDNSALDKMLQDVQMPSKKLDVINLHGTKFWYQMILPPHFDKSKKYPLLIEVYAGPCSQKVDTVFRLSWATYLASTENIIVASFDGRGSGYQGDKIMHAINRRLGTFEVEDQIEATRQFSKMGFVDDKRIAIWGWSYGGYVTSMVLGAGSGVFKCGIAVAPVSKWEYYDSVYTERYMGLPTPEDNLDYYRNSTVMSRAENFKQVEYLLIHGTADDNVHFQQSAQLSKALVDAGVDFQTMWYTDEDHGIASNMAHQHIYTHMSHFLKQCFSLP", "test": "DPP-4 degradation / in vitro DPP-4 half-life", "format": "in vitro ADME", "details": "incubated in the presence of DPP-4 for up to 12 hs", "protocol": "(§1) For calculation of experimental molecular masses, peptide samples (1 μg) were mixed with α-cyano-4-hydroxycinnamic acid (1 μg) and applied to a Voyager-DE BioSpectrometry Workstation and mass-to-charge (m/z) ratio verses peak intensity recorded by MALDI-TOF mass spectrometry. […] Degradation profiles were obtained using rp-HPLC analysis and HPLC peak area data used to calculate percentage intact peptide remaining at each time point.\n(§2) Briefly, polypeptides (20 μg) were incubated with 5 μl of purified DPP-4 (5 mU, Sigma-Aldrich, Dorset, UK) in 50 mM TEA-HCl (pH 7.8; final volume 450 μl) at 37° C. for 0, 1, 4 and 12 hours. Enzymatic reactions were terminated by the addition of 50 μl TFA/H2O (10% v/v, Sigma-Aldrich, Dorset, UK). Reaction products were then separated by HPLC and analysed using MALDI-TOF."}, "[2]": {"biological_target": "T2, DPP-4 (Sus scrofa, UniProt P22411)", "T2 construct": "purchased Sigma-Aldrich, Dorset, UK", "T2 sequence (P22411 whole entry)": "as above", "test": "DPP-4 degradation / in vitro DPP-4 half-life", "format": "in vitro ADME, porcine", "details": "pig; 37° C., 50 mmol/L TEA-HCl pH 7.8, 5 mU purified porcine DPP-4, 0-12 h", "protocol": "as §1, §2"}, "[3]": {"tested_on": "high fat fed mice", "test": "Metabolic response to GIP after 21 days treatment", "format": "in vivo", "protocol": "(§3) Twice daily (09:30 and 17:30 h) i.p. injections of saline vehicle (0.9% w/v NaCl), polypeptides (at 25 nmol/kg bw) were administered for 21 days in high fat mice. Energy intake and body weight were monitored daily, and non-fasting blood glucose and plasma insulin concentrations were assessed at 3 day intervals. On day 21, a non-fasted 24 h glucose profile was conducted. At the end of the treatment period, i.p. glucose tolerance (18 mmol/kg bw), biological response to GIP (18 mmol/kg glucose in combination with native GIP (25 nmol/kg); i.p.) and insulin sensitivity (15 U/kg bw; i.p.) tests were performed. HOMA-IR was determined using the equation HOMA-IR=fasting glucose (mmol/l)×fasting insulin (mU/l)/22.5. All test solutions were administered in a final volume of 5 ml/kg body weight, at 10:00 h without previous 09:30 h peptide injection. Terminal analysis included measurement of total body fat and lean mass by DEXA scanning (Piximus Densitometer, Inside Outside Sales, Madison Wis., USA) and extraction of pancreatic tissue for analysis as detailed below. Immunohistochemistry Pancreatic tissue was excised, divided longitudinally and either immediately snap frozen for subsequent extraction of insulin using acid ethanol extraction (5 ml/g) as described by Irwin et al., 2015 (Diabetes. 2015 August; 64(8):2996-3009), or processed for immunohistochemical examination. Briefly, pancreatic tissues were fixed in 4% parafolmaldehyde at 4° C. for 48 h. Pancreata were then embedded in paraffin wax and processed using an automated tissue processor (Leica TP1020, Leica Microsystems, Nussloch, Germany). Immunohistochemistry was performed as described by Vasu et al., 2014 (PLoS One. 2014 Jun. 26; 9(6):e101005). Succinctly, tissue sections were deparaffinised, rehydrated and probed with primary antibodies: mouse anti-insulin antibody (1:500; Abcam, ab6995) or guinea-pig anti-glucagon antibody (PCA2/4, 1:400; raised in-house). The sections were then incubated with secondary antibody, Alexa Fluor 488 goat anti-guinea pig IgG (1:400) or Alexa Fluor 594 goat anti-mouse IgG (1:400); respectively. The slides were viewed under a FITC (488 nm) or TRITC filter (594 nm) using a fluorescent microscope (Olympus system microscope, model BX51) and photographed using a DP70 camera adapter system. Islet parameters were analysed using Cell^F image analysis software (Olympus Soft Imaging Solutions, GmbH).\n(§4) Tests were conducted after twice daily treatment with saline vehicle (0.9% (w/v) NaCl), (DAla^2)GIP and (DAla^2)GIP/xenin-8-Gln (each at 25 nmol/kg bw) for 21 days. For glucose tolerance test, blood glucose and plasma insulin concentrations were measured before and 15, 30, 60 and 105 min after i.p injection of glucose (18 mmol/kg bw). For metabolic response to GIP, blood glucose and plasma insulin concentrations were measured before and 15, 30, 60 and 105 min after i.p injection of glucose (18 mmol/kg bw) in combination with GIP (25 nmol/kg bw). All studies were conducted in 18 h fasted mice. AUC values (0-105 min) for blood glucose and plasma insulin are shown. Values represent means±SEM for 6-8 mice. *P<0.05, **P<0.01, **P<0.01 compared to high fat controls. ^ΔP<0.05, ^ΔΔP<0.01, ^ΔΔΔP<0.001 compared to lean controls."}, "[4]": {"tested_on": "high fat fed mice", "test": "Glucose tolerance test after 21 days treatment", "format": "in vivo", "protocol": "as §3, with “The slides were viewed under a FITC (488 nm) or TRITC filter (594 nm) using a fluorescent microscope (Olympus system microscope, model BX51) and photographed using a DP70 camera adapter system.” left out\nas §4, with “All studies were conducted in 18 h fasted mice. AUC values (0-105 min) for blood glucose and plasma insulin are shown. Values represent means±SEM for 6-8 mice. *P<0.05, **P<0.01, **P<0.01 compared to high fat controls. ^ΔP<0.05, ^ΔΔP<0.01, ^ΔΔΔP<0.001 compared to lean controls.” left out"}, "[5]": {"tested_on": "lean control mice", "test": "Acute and persistent glucose lowering and insulin releasing effects in lean control mice", "format": "in vivo", "protocol": "All animal experiments were carried out in accordance with the UK Animals (Scientific Procedures) Act 1986. For food intake studies, fasted (18 h) mice were given intraperitoneal (i.p) injections of polypeptides at a dose of 25, 100 or 250 nmol/kg bw. Mice were then allowed free access to normal chow for 180 mins and cumulative food intake measured. […] Blood samples were collected from the cut tip on the tail vein of conscious mice into chilled fluoride/heparin glucose micro-centrifuge tubes (Sarstedt, Numbrecht, Germany) at the time points indicated in the Drawings. Blood glucose was measured directly using a hand-held Ascencia Contour blood glucose meter (Bayer Healthcare, Newbury, Berkshire, UK)."}, "[6]": {"details": "0-105 min, glucose 18 mmol/kg + GIP 25 nmol/kg i.p., 18 h fasted, after 21 days treatment, mean ± SEM"}, "[7]": {"details": "21 days treatment, vs high fat controls"}, "[8]": {"details": "0-105 min, glucose 18 mmol/kg i.p., 18 h fasted, after 21 days 25 nmol/kg twice daily, mean ± SEM"}, "[9]": {"details": "25 nmol/kg 4 h before glucose 18 mmol/kg, vs saline"}},
  "note": "Marks after values point to notes of the source that are not given here.",
  "data": [
    {"compound": "CC[C@H](C)[C@H](NC(=O)[C@H](CO)NC(=O)[C@H](Cc1ccc(O)cc1)NC(=O)[C@H](CC(=O)O)NC(=O)[C@H](CO)NC(=O)[C@@H](NC(=O)[C@H](Cc1ccccc1)NC(=O)[C@@H](NC(=O)CNC(=O)[C@H](CCC(=O)O)NC(=O)[C@@H](C)NC(=O)[C@@H](N)Cc1ccc(O)cc1)[C@@H](C)O)[C@@H](C)CC)C(=O)N[C@@H](C)C(=O)N[C@@H](CCSC)C(=O)N[C@@H](CC(=O)O)C(=O)N[C@@H](CCCCN)C(=O)N[C@H](C(=O)N[C@@H](Cc1c[nH]cn1)C(=O)N[C@@H](CCC(N)=O)C(=O)N[C@@H](CCC(N)=O)C(=O)N[C@@H](CC(=O)O)C(=O)N[C@@H](Cc1ccccc1)C(=O)N[C@H](C(=O)N[C@@H](CC(N)=O)C(=O)N[C@@H](Cc1c[nH]c2ccccc12)C(=O)N[C@@H](CC(C)C)C(=O)N[C@@H](CC(C)C)C(=O)N[C@@H](C)C(=O)N[C@@H](CCC(N)=O)C(=O)N[C@@H](CCCCN)C(=O)NCC(=O)N[C@@H](CCCCN)C(=O)N[C@@H](CCCCN)C(=O)N[C@@H](CC(N)=O)C(=O)N[C@@H](CC(=O)O)C(=O)N[C@@H](Cc1c[nH]c2ccccc12)C(=O)N[C@@H](CCCCN)C(=O)N[C@@H](Cc1c[nH]cn1)C(=O)N[C@@H](CC(N)=O)C(=O)N[C@H](C(=O)N[C@H](C(=O)N[C@@H](CCC(N)=O)C(=O)O)[C@@H](C)O)[C@@H](C)CC)C(C)C)[C@@H](C)CC", "note": "[(DAla2)GIP, TYR-(d)ALA-GLU-GLY-THR-PHE-ILE-SER-ASP-TYR-SER-ILE-ALA-MET-ASP-LYS-ILE-HIS-GLN-GLN-ASP-PHE-VAL-ASN-TRP-LEU-LEU-ALA-GLN-LYS-GLY-LYS-LYS-ASN-ASP-TRP-LYS-HIS-ASN-ILE-THR-GLN]", "values": [
      {"measurement": "Intactness on incubation with DPP-4", "setting": "[1]", "result": "remained fully intact"},
      {"measurement": "half-life", "setting": "[2]", "result": "> 720", "unit": "min"},
      {"measurement": "Metabolic response to GIP Blood glucose AUC", "setting": "[3]; [6]", "result": "1029.5 ± 138.0* mmol/l · min"},
      {"measurement": "Metabolic response to GIP Plasma insulin AUC", "setting": "[3]; [6]", "result": "142.3 ± 19.2**^,ΔΔΔ ng/ml · min"},
      {"measurement": "Glucose lowering and insulin releasing actions of native GIP", "setting": "[3]; 21 days treatment", "result": "significantly (P<0.05) improved"},
      {"measurement": "Decrease of overall blood glucose AUC in response to GIP vs saline treated control mice", "setting": "[3]; 21 days treatment, P<0.05", "result": 36, "unit": "%"},
      {"measurement": "GIP-induced elevations of plasma insulin (AUC)", "setting": "[3]; [7]", "result": "significantly (P<0.05 to P<0.01) augmented"},
      {"measurement": "Glucose tolerance test Blood glucose AUC", "setting": "[4]; [8]", "result": "1714.7 ± 138.6^Δ mmol/l · min"},
      {"measurement": "Glucose tolerance test Plasma insulin AUC", "setting": "[4]; [8]", "result": "65.4 ± 9.2^Δ ng/ml · min"},
      {"measurement": "Glucose-stimulated plasma insulin AUC", "setting": "[4]; [7]", "result": "reduced, albeit non-significantly"},
      {"measurement": "Overall AUC blood glucose following a glucose load", "setting": "[4]; 21 days treatment, vs saline controls", "result": "strong tendency to reduce overall AUC blood glucose levels"},
      {"measurement": "Overall AUC blood glucose, peptide 4 h prior to glucose load", "setting": "[5]; [9]", "result": "significantly reduced"},
      {"measurement": "Plasma insulin AUC, peptide 4 h prior to glucose load", "setting": "[5]; [9]", "result": "increased plasma insulin AUC values (P<0.05)"},
      {"measurement": "Blood glucose at 15 min post-injection", "setting": "[5]; 25 nmol/kg with glucose 18 mmol/kg i.p.", "result": "significant (P<0.05) reduction in blood glucose levels"},
      {"measurement": "Blood glucose at 30 min post injection", "setting": "[5]; 25 nmol/kg with glucose 18 mmol/kg i.p., non-fasted mice, vs glucose alone", "result": "significantly (P<0.05) lowered blood glucose values"},
      {"measurement": "Overall 0-105 min AUC blood glucose", "setting": "[5]; 25 nmol/kg with glucose 18 mmol/kg i.p., vs glucose alone", "result": "significantly (P<0.05) decreased"}
    ]}
  ]
}
